Reference: patent publication US20020016981A1, “Methods for producing genetically modified plants, plant materials and plant products produced thereby” (priority 1998, published 2002)

Columns and labels:
Type in all cases: cell-based
[1] = test system: stem segments from in vitro micropropagated shoot cultures of E. grandis x nitens clone 910.59; experiment: Kanamycin inhibition of adventitious bud formation on stem segments (Example 2); details: after 5 weeks in culture
Excerpt: (§1) The following examples are offered by way of illustration and not by way of limitation. Examples 1 to 3 describe experiments involving optimization of the regeneration and transformation protocols for Eucalyptus transformation. All refer to adventitious bud induction from stem segments obtained from in vitro micropropagated shoot cultures of E. grandis x nitens clone 910.59 (Fletcher Challenge Forests, Ltd., New Zealand). The tissue culture conditions in all examples, unless otherwise noted, were: temperature 20° C., 16 hour photoperiod, and cool white fluorescent lighting. These tissue culture conditions are generally preferred. All cultures were placed in 20×100 mm Petri dishes, 10 stem segments per dish.
This experiment was designed to determine the optimal concentration of kanamycin to be used for selection of transformed bud tissues. Explants were cultured as described at the end of Example 1, in combination with kanamycin levels of 0, 5, 10, 25, 50 or 100 mg/l. In vitro shoots of 3-4 cm in size were cut into single node segments, and the appropriate segments used. All leaves were removed prior to culture. Approximately thirty explants were used for each treatment. Cultures were transferred to fresh medium after 3 weeks in culture, and the percentage of bud inhibition determined after 5 weeks in culture.

[2] = test system: stem segments from in vitro micropropagated shoot cultures of E. grandis x nitens clone 910.59; experiment: Adventitious bud induction from stem segments of different age at different BA concentrations (Example 1); details: NAA 0.01 mg/l, after 5 weeks in culture
Excerpt: as §1
This experiment was designed to determine the best age of stem segments for adventitious bud induction. The basal medium used was full-strength Murashige and Skoog (MS) medium (Sigma M5519) and sucrose 30 g/l. The age of stem segments (apical, 1st, 2nd, 3rd and 4th nodes) were tested in combination with the concentrations of Benzylaminopurine (BA-1, 2 and 3 mg/l). All media contained Naphthalene acetic acid (NAA) at 0.01 mg/l.
In vitro shoots of 3-4 cm were cut into single node segments. The leaves were removed prior to culture. Approximately twenty explants were cultured for each treatment. Cultures were transferred to fresh media every 3 weeks. Adventitious bud development assessments were done after 5 weeks in culture. The percentages of explants forming adventitious shoots for each treatment are listed below.

[3] = test system: Eucalyptus nodal sections; experiment: Acetosyringone in the co-cultivation medium, GUS staining of explants (Example 8)
Experimental: The inclusion of a phenolic compound, acetosyringone, in the co-cultivation medium was tested. Eucalyptus nodal sections were infected with Agrobacterium containing the double 35S-GUS construct, as described in Example 5, and then allowed to co-cultivate on MS+0.4% glucose medium containing acetosyringone, as described in Example 5. Following co-cultivation, explants were placed onto bud induction/selection medium for subsequent growth. Explants were stained for GUS activity as in Example 5 at 4-5 weeks post-infection.

Compound: NC[C@H]1O[C@H](O[C@H]2[C@H](O)[C@@H](O[C@H]3O[C@H](CO)[C@@H](O)[C@H](N)[C@H]3O)[C@H](N)C[C@@H]2N)[C@H](O)[C@@H](O)[C@@H]1O [Kanamycin, kanamycin]
- inhibition at 5 µg/mL ([1]; 840 h, kanamycin 5 mg/l, read-out: % Bud Inhibition Relative To Control): 20%
- inhibition at 10 µg/mL ([1]; 840 h, kanamycin 10 mg/l, read-out: % Bud Inhibition Relative To Control): 41%
- inhibition at 25 µg/mL ([1]; 840 h, kanamycin 25 mg/l, read-out: % Bud Inhibition Relative To Control): 59%
- inhibition at 50 µg/mL ([1]; 840 h, kanamycin 50 mg/l, read-out: % Bud Inhibition Relative To Control): 81%
- inhibition at 100 µg/mL ([1]; 840 h, kanamycin 100 mg/l, read-out: % Bud Inhibition Relative To Control): 96%
- % of Stem Segments Forming Adventitious Buds ([1]; kanamycin 5 mg/l): 64% (18/28)
- % of Stem Segments Forming Adventitious Buds ([1]; kanamycin 10 mg/l): 47% (14/30)
- % of Stem Segments Forming Adventitious Buds ([1]; kanamycin 25 mg/l): 33% (10/30)
- % of Stem Segments Forming Adventitious Buds ([1]; kanamycin 50 mg/l): 15% (14/31)
- % of Stem Segments Forming Adventitious Buds ([1]; kanamycin 100 mg/l): 3% (1/30)

Compound: c1ccc(CNc2ncnc3[nH]cnc23)cc1 [BA, Benzylaminopurine]
- percentages of explants forming adventitious shoots ([2]; Apical Shoot Tips, BA 1 mg/l): 25% (5/20)
- percentages of explants forming adventitious shoots ([2]; Apical Shoot Tips, BA 2 mg/l): 5% (1/20)
- percentages of explants forming adventitious shoots ([2]; Apical Shoot Tips, BA 3 mg/l): 33% (7/20)
- percentages of explants forming adventitious shoots ([2]; First Node, BA 1 mg/l): 57% (12/21)
- percentages of explants forming adventitious shoots ([2]; First Node, BA 2 mg/l): 35% (7/20)
- percentages of explants forming adventitious shoots ([2]; First Node, BA 3 mg/l): 20% (4/20)
- percentages of explants forming adventitious shoots ([2]; Fourth Node, BA 1 mg/l): 45% (9/20)
- percentages of explants forming adventitious shoots ([2]; Fourth Node, BA 2 mg/l): 38% (8/21)
- percentages of explants forming adventitious shoots ([2]; Fourth Node, BA 3 mg/l): 10% (2/20)
- percentages of explants forming adventitious shoots ([2]; Second Node, BA 1 mg/l): 76% (16/21)
- percentages of explants forming adventitious shoots ([2]; Second Node, BA 2 mg/l): 12% (6/20)
- percentages of explants forming adventitious shoots ([2]; Second Node, BA 3 mg/l): 20% (4/20)
- percentages of explants forming adventitious shoots ([2]; Third Node, BA 1 mg/l): 75% (15/20)
- percentages of explants forming adventitious shoots ([2]; Third Node, BA 2 mg/l): 15% (3/20)
- percentages of explants forming adventitious shoots ([2]; Third Node, BA 3 mg/l): 15% (3/20)

Compound: COc1cc(C(C)=O)cc(OC)c1O [Acetosyringone, acetosyringone]
- % of Total GUS-Positive Explants in Buds ([3]; 5 μM acetosyringone in MS+0.4% glucose co-cultivation medium, GUS staining 4-5 weeks post-infection): 8%
- effect on transformation efficiency ([3]; 5 μM acetosyringone in the co-cultivation medium): enhances transformation efficiency
